Series [1] in a line: Liver microsomal stability, dog. The series is classed as in vitro ADME. To be noted: pH 7.4; dog liver microsomes, 0.5 mg/mL protein, 1 μM compound, NADPH; >80% remaining at 45 min denoted >140; read-out: Liver Microsomal Stability: t1/2 (min); dog. The protocol: (§1) Compounds were subjected to the following assays to investigate liver microsomal stability, permeability and plasma protein binding.
(§2) Pooled liver microsomes were purchased from a reputable commercial supplier and stored at −80° C. prior to use. Microsomes (final protein concentration 0.5 mg/mL), 0.1 M phosphate buffer pH 7.4 and test compound (final substrate concentration 1 μM; final DMSO concentration 0.25%) were pre-incubated at 37° C. prior to the addition of NADPH (final concentration 1 mM) to initiate the reaction. The final incubation volume was 50 μL. A control incubation was included for each compound tested where 0.1 M phosphate buffer pH 7.4 was added instead of NADPH (minus NADPH). Two control compounds were included with each species. All incubations were performed singularly for each test compound. Each compound was incubated for 0, 5, 15, 30 and 45 min. The control (minus NADPH) was incubated for 45 min only. The reactions were stopped by transferring incubate into acetonitrile at the appropriate time points, in a 1:3 ratio. The termination plates are centrifuged at 3,000 rpm for 20 min at 4° C. to precipitate the protein. Following protein precipitation, the sample supernatants were combined in cassettes of up to 4 compounds, internal standard added, and samples analysed by LC-MS/MS. From a plot of ln peak area ratio (compound peak area/internal standard peak area) against time, the gradient of the line was determined. Subsequently, half-life (t1/2) and intrinsic clearance (CLint) were calculated.
(Liver microsomes are vesicles of endoplasmic reticulum, rich in cytochrome P450 enzymes.)

Series [2] in a line: Liver microsomal stability, human. The series is classed as in vitro ADME. To be noted: pH 7.4; human liver microsomes, 0.5 mg/mL protein, 1 μM compound, NADPH; >80% remaining at 45 min denoted >140; read-out: Liver Microsomal Stability: t1/2 (min); human. The protocol:
as §1, §2

Series [3] in a line: Liver microsomal stability, rat. It is filed as in vitro ADME. To be noted: pH 7.4; rat liver microsomes, 0.5 mg/mL protein, 1 μM compound, NADPH; >80% remaining at 45 min denoted >140; read-out: Liver Microsomal Stability: t1/2 (min); rat. The protocol:
as §1, §2

Series [4] relates to RSV A2. The series can be described thus: RSV plaque reduction assay. The series is classed as cell-based, respiratory syncytial virus (RSV). To be noted: human respiratory syncytial virus, HepG2; Hep-G2 cells, RSV A2, mean of at least two experiments. How it is done: Compounds were subjected to RSV plaque reduction assays according to the following protocol.
Hep-G2 cells (ECACC, 85011430) were passaged in flasks and seeded in 24-well plates in DMEM containing antibiotics and supplemented with 10% FBS. During inoculation and subsequent incubation, cells were cultured in DMEM containing 2% FBS. 100 plaque forming unit/well of RSV (RSV A2 ECACC, 0709161v) was mixed with eight serial dilutions of compound. Subsequently, 100 μL of the virus/compound mixtures was added to confluent Hep-G2 cell monolayers. The cells and virus/compound mixtures were incubated at 37° C. in a humidified 5% CO2 incubator for 2 h prior to removal of the inoculum and addition of 1 mL of overlay (DMEM containing 2% FBS and 0.8% CMC) containing compound dilutions. The cells and were incubated at 37° C. in a humidified 5% CO2 incubator for 2 days.
Cells were washed with PBS before adding 75/25% v/v EtOH/MeOH, for 3 min. Fixative was removed and plates were washed with PBS. A pre-titrated amount of the primary antibody was added in 200 μL PBS/2% milk powder, and plates incubated for 90 min at 37° C. The plates were washed 3 times with PBS/0.05% Tween20 before addition of rabbit anti-goat horse radish peroxidase in 200 μL PBS/2% milk powder, and incubated for 1 h at 37° C. Following three wash steps with PBS/0.05% Tween20, 200 μL ready-to-use TrueBlue was added and plates were incubated at rt for 10-15 min before washing with water. After removal of water, plates were air-dried in the dark.
Plates were scanned and analysed using the Immunospot S6 Macro analyser, which is equipped with BioSpot analysis software for counting immunostained plaques (virospots). Plaque counts were used to calculate % infection relative to the mean of the plaque count in the virus control wells for RSV. The EC50 value was calculated as 50% reduction in signal, respectively, by interpolation of inhibition curves fitted with a 4-parameter nonlinear regression with a variable slope in Dotmatics. Plaque EC50 and cell toxicity CC50 values are a mean of at least two experiments and figures are rounded to whole units.

Series [5] is described as follows: Cell cytotoxicity CC50. It is filed as cell-based. To be noted: human; mean of at least two experiments.

Structures are written as SMILES.

As for `CCNc1ccc(-c2c(C(=O)N[C@H]3N=C(c4ccccc4)c4ccccc4NC3=O)c(C)nn2CC)c(F)n1` [Example 10, 1-Ethyl-5-[6-(ethylamino)-2-fluoropyridin-3-yl]-3-methyl-N-[(3S)-2-oxo-5-phenyl-1,3-dihydro-1,4-benzodiazepin-3-yl]pyrazole-4-carboxamide], the half-life in series [1] stood at 85.8 min; in series [2], 48.1 min; in series [3], 20.2 min. The EC50 (commonly the concentration that produces a half-maximal response) in series [4] turned out to be 0.089 µM. Besides, the CC50 (commonly the concentration that lowers cell viability or growth by half) in series [5] is over 25 µM.

For the compound `CCn1ncc(C(=O)N[C@H]2N=C(c3ccccc3)c3cccc(F)c3NC2=O)c1-c1ncc(NC2CC2)cc1F` [Example 12, 5-[5-(Cyclopropylamino)-3-fluoropyridin-2-yl]-1-ethyl-N-[(3S)-9-fluoro-2-oxo-5-phenyl-1,3-dihydro-1,4-benzodiazepin-3-yl]pyrazole-4-carboxamide], the half-life stood at 68.5 min in series [1], 193 min in series [2] and 51.1 min in series [3]. The EC50 in series [4] is 0.045 µM. This compound also displayed a CC50 in series [5] of over 25 µM.

As to `CCNc1cnc(-c2c(C(=O)N[C@H]3N=C(c4ccccc4)c4cccc(F)c4NC3=O)cnn2CC)c(F)c1` [Example 13, 1-Ethyl-5-[5-(ethylamino)-3-fluoropyridin-2-yl]-N-[(3S)-9-fluoro-2-oxo-5-phenyl-1,3-dihydro-1,4-benzodiazepin-3-yl]pyrazole-4-carboxamide], the figures for the half-life in series [1], in series [2] and in series [3] were 35.6 min, 42.9 min and 9.6 min, respectively. In series [4], this compound gave an EC50 of 0.068 µM. The compound further came in with a CC50 in series [5] of over 25 µM.

Take `CCNc1ccc(-c2c(C(=O)N[C@H]3N=C(c4ccccc4)c4ccccc4NC3=O)cnn2C2CC2)c(F)n1` [Example 14, 1-Cyclopropyl-5-[6-(ethylamino)-2-fluoropyridin-3-yl]-N-[(3S)-2-oxo-5-phenyl-1,3-dihydro-1,4-benzodiazepin-3-yl]pyrazole-4-carboxamide]: the half-life turned out to be 59.3 min in series [1], 93.7 min in series [2] and 37.9 min in series [3]. Besides, in series [4], the EC50 amounted to 0.095 µM. In addition, in series [5], the CC50 is over 25 µM.

Consider `O=C(N[C@H]1N=C(c2ccccc2)c2ccccc2NC1=O)c1cnn(C2CC2)c1-c1ccc(NC2CC2)nc1F` [Example 15, 1-Cyclopropyl-5-[6-(cyclopropylamino)-2-fluoropyridin-3-yl]-N-[(3S)-2-oxo-5-phenyl-1,3-dihydro-1,4-benzodiazepin-3-yl]pyrazole-4-carboxamide], for which the half-life in series [1] is 57.7 min; in series [2] it was 72.3 min; in series [3], 69.8 min. The compound also showed an EC50 in series [4] of 0.051 µM. The CC50 in series [5] was over 25 µM.

As for `CC(C)n1ncc(C(=O)N[C@H]2N=C(c3ccccc3)c3ccccc3NC2=O)c1-c1ccc(NC2CC2)nc1F` [Example 16, 5-[6-(Cyclopropylamino)-2-fluoropyridin-3-yl]-N-[(3S)-2-oxo-5-phenyl-1,3-dihydro-1,4-benzodiazepin-3-yl]-1-propan-2-ylpyrazole-4-carboxamide], the half-life turned out to be 22.2 min in series [1], 50.6 min in series [2] and 72.7 min in series [3]. Moreover, in series [4], the EC50 turned out to be 0.05 µM. The compound also returned a CC50 in series [5] of over 25 µM.

Turning to `CCn1ncc(C(=O)N[C@H]2N=C(c3ccccc3)c3cccc(F)c3NC2=O)c1-c1ncc(NC(C)C)cc1F` [Example 17, 1-Ethyl-N-[(3S)-9-fluoro-2-oxo-5-phenyl-1,3-dihydro-1,4-benzodiazepin-3-yl]-5-[3-fluoro-5-(propan-2-ylamino)pyridin-2-yl]pyrazole-4-carboxamide], the results for the half-life in series [1], in series [2] and in series [3] were 68.9 min, 120 min and 318 min, respectively. For the same compound, in series [4], the EC50 is 0.052 µM. The compound also registered a CC50 in series [5] of over 25 µM.

With `O=C(N[C@H]1N=C(c2ccccc2)c2ccccc2NC1=O)c1cnn(C2COC2)c1-c1ccc(NC2CC2)nc1F` [Example 18, 5-[6-(Cyclopropylamino)-2-fluoropyridin-3-yl]-1-(oxetan-3-yl)-N-[(3S)-2-oxo-5-phenyl-1,3-dihydro-1,4-benzodiazepin-3-yl]pyrazole-4-carboxamide], the half-life stood at 149 min in series [1], 144 min in series [2] and 93.5 min in series [3]. Moreover, the EC50 in series [4] worked out at 0.083 µM. The compound further showed a CC50 in series [5] of over 25 µM.

For `CCCNc1ccc(-c2nn(CC)cc2C(=O)N[C@H]2N=C(c3ccccc3)c3ccccc3NC2=O)c(F)n1` [Example 27, 1-Ethyl-3-[2-fluoro-6-(propylamino)pyridin-3-yl]-N-[(3S)-2-oxo-5-phenyl-1,3-dihydro-1,4-benzodiazepin-3-yl]pyrazole-4-carboxamide], the half-life in series [1] is 12.6 min; in series [2], 43.1 min; in series [3] it was 23.9 min. In addition, a half-maximal response in series [4] (EC50) required 0.057 µM. In series [5], the CC50 is over 25 µM.

Regarding `CCCNc1ccc(-c2nn(CC)cc2C(=O)N[C@H]2N=C(c3ccccc3)c3cccc(F)c3NC2=O)c(F)n1` [Example 28, 1-Ethyl-N-[(3S)-9-fluoro-2-oxo-5-phenyl-1,3-dihydro-1,4-benzodiazepin-3-yl]-3-[2-fluoro-6-(propylamino)pyridin-3-yl]pyrazole-4-carboxamide], the half-life in series [1] was determined as 30.8 min; in series [2], 41 min; in series [3] it was 22.7 min. The compound also returned an EC50 in series [4] of 0.039 µM. Also, the 50% cytotoxic concentration (CC50) in series [5] is over 25 µM.

Consider `CC(C)(C)n1cc(C(=O)N[C@H]2N=C(c3ccccc3)c3ccccc3NC2=O)c(-c2ccc(NC3CC3)nc2F)n1` [Example 29, 1-tert-butyl-3-[6-(cyclopropylamino)-2-fluoropyridin-3-yl]-N-[(3S)-2-oxo-5-phenyl-1,3-dihydro-1,4-benzodiazepin-3-yl]pyrazole-4-carboxamide], for which the figures for the half-life in series [1], in series [2] and in series [3] were 44 min, 73.9 min and 45.2 min, respectively. In series [4], the EC50 was determined as 0.054 µM. The compound further had a CC50 in series [5] of over 25 µM.

With `O=C(N[C@H]1N=C(c2ccccc2)c2ccccc2NC1=O)c1cn(C2CCOCC2)nc1-c1ccc(NC2CC2)nc1F` [Example 31, 3-[6-(Cyclopropylamino)-2-fluoropyridin-3-yl]-1-(oxan-4-yl)-N-[(3S)-2-oxo-5-phenyl-1,3-dihydro-1,4-benzodiazepin-3-yl]pyrazole-4-carboxamide], the results for the half-life in series [1], in series [2] and in series [3] were 65.7 min, 116 min and 36.3 min, respectively. The same compound displayed an EC50 in series [4] of 0.055 µM. The CC50 in series [5] is over 25 µM.

Turning to `O=C(N[C@H]1N=C(c2ccccc2)c2cccc(F)c2NC1=O)c1cn(CC(F)(F)F)nc1-c1ccc(NC2CC2)nc1F` [Example 33, 3-[6-(Cyclopropylamino)-2-fluoropyridin-3-yl]-N-[(3S)-9-fluoro-2-oxo-5-phenyl-2,3-dihydro-1H-1,4-benzodiazepin-3-yl]-1-(2,2,2-trifluoroethyl)-1H-pyrazole-4-carboxamide], the half-life in series [1] was 81 min; in series [2], 80.3 min; in series [3], 56 min. For the same compound, in series [4], the midpoint of the response, the EC50, lay at 0.08 µM. In series [5], this compound came in with a CC50 of over 25 µM.

(Values after US20220409629A1, “BENZODIAZEPINE DERIVATIVES FOR TREATING A RESPIRATORY SYNCYTIAL VIRUS (RSV) INFECTION” (priority 2019, published 2022).)
